The term IC50 denotes the concentration that gives 50% inhibition.

Data set [1] is described as follows: Hepatoprotective activity against D-Galactosamine-induced toxicity in rat WB-F344 cell assessed as cell damage at 10 uM by MTT colorimetric assay relative to control. It is filed as functional. (In general: Formazan colour is commonly taken as a measure of viable cells.)
The test system of data set [2] is Hepatocyte. Description: Hepatoprotective activity against D-GaIN induced liver injury in rat hepatocyte assessed as decrease in LDH level at 30 to 120 uM. The data set is classed as functional. The settings on record: dose 30-120 µM.
Data set [3] can be described thus: Hepatotoxicity in D-GaIN induced in Wistar rat model hepatocyte assessed as reduction in PLA2 level. The data set is classed as toxicity, cell-based.
The subject of data set [4] is Hepatocyte. Description: Hepatoprotective activity against D-GaIN induced liver injury in rat hepatocyte assessed as decrease in ALT level at 30 to 120 uM. The data set is classed as functional. The settings on record: dose 30-120 µM.
Data set [5] can be described thus: Hepatotoxicity in D-GaIN induced Wistar rat assessed as change in induction of TAT level for 10 days relative to control. The data set is classed as toxicity. Also noted: concentration or dose not given beside the values. The settings on record: in vivo, 240 h, time 10 day.
A short description of data set [6]: Hepatotoxicity in rat hepatocyte assessed as change in GSH level at 30 microg/mL relative to control. It is filed as toxicity, cell-based. Conditions: hepatocytes, at 30 µg/mL.
Data set [7] deals with Hepatocyte. Description: Hepatoprotective activity against D-GaIN/TNFalpha -induced cell death in mouse hepatocyte assessed as inhibition of cell death. The data set is classed as functional, cell-based. Also on record: Activity: concentration or dose not given beside the values.
Data set [8] deals with Hepatocyte. Kind of data set: Hepatoprotective activity against D-GaIN/TNFalpha induced cell death in mouse hepatocytes assessed as reduction in TNF alpha level. It is filed as functional, cell-based.
Data set [9] deals with Hepatocyte. Kind of data set: Hepatoprotective activity against D-GaIN/TNFalpha-induced cell death in mouse hepatocyte at 100 uM. The data set is classed as functional, cell-based.
In data set [10] the test system is Hepatocyte. Description: Hepatoprotective activity against D-GaIN-induced toxicity in mouse hepatocyte relative to control. It is filed as functional, cell-based.

`CC(C)=CC[C@H](O)[C@@H](C)[C@H]1CC[C@@]2(C)C3=C(CC[C@]12C)[C@@]1(C)CC[C@H](O)C(C)(C)[C@@H]1CC3`: in data set [1], the Activity was 56.3%.

Turning to `CC(=O)O[C@@H]1C[C@](C)(C(=O)O)C[C@H]2C3=CC(=O)[C@@H]4[C@@]5(C)CC[C@H](O[C@@H]6O[C@H](C(=O)O)[C@@H](O)[C@H](O)[C@H]6O[C@@H]6O[C@H](C(=O)O)[C@@H](O)[C@H](O)[C@H]6O)C(C)(C)[C@@H]5CC[C@@]4(C)[C@]3(C)CC[C@@]12C`, the Activity with Hepatocyte [2] worked out at 242.8 U/L; in the data set on Hepatocyte [4] it was 16.5 U/L. Moreover, the IC50 in data set [3] was found to be 27.1 µM.

As to `CC1(C)[C@@H](O[C@@H]2O[C@H](C(=O)O)[C@@H](O)[C@H](O)[C@H]2O[C@@H]2O[C@H](C(=O)O)[C@@H](O)[C@H](O)[C@H]2O)CC[C@]2(C)[C@H]3C(=O)C=C4[C@@H]5C[C@](C)(C(=O)O)CC[C@]5(C)CC[C@@]4(C)[C@]3(C)CC[C@@H]12`, the Activity with Hepatocyte [2] amounted to 253.5 U/L; in the data set on Hepatocyte [4] it was 17.1 U/L. In data set [3], the IC50 was found to be 16.9 µM.

Take `CC1(C)[C@@H](O[C@H]2O[C@H](C(=O)O)[C@@H](O)[C@H](O)[C@H]2O[C@@H]2O[C@H](C(=O)O)[C@@H](O)[C@H](O)[C@H]2O)CC[C@]2(C)[C@H]3C(=O)C=C4[C@@H]5C[C@@](C)(C(=O)O)CC[C@]5(C)CC[C@@]4(C)[C@]3(C)CC[C@@H]12` [GLYCYRRHIZIN]: the Activity in the data set on Hepatocyte [2] was found to be 253.5 U/L; in the data set on Hepatocyte [4], 17.1 U/L. Further, the IC50 in [3] stood at 9.3 µM.

Regarding `CC(C)=CCC[C@@H](C(=O)O)[C@H]1CC[C@@]2(C)C3=C(CC[C@]12C)[C@@]1(C)CC[C@H](O)C(C)(C)[C@@H]1CC3` [TRAMETENOLIC ACID], the Activity in [1] came out at 75%.

Regarding `CC1(C)CC[C@@]2(C)[C@H](C1)C1=CC[C@@H]3[C@@]4(C)CC[C@@H](O)C(C)(C)[C@@H]4CC[C@@]3(C)[C@]1(C)C[C@@H]2O`, the Activity in data set [5] is on record as 5.3%.

`C[C@H]1O[C@@H](O[C@H]2CC[C@@]3(C)[C@@H](CC[C@]4(C)[C@@H]3[C@H](O)C[C@@H]3C5=CC(C)(C)CC[C@]5(CO)[C@@H](O)C[C@]34C)[C@]2(C)CO)[C@H](O)[C@@H](O[C@@H]2O[C@H](CO)[C@@H](O)[C@H](O)[C@H]2O)[C@H]1O`: in data set [6], the Activity amounted to 64.7%.

As to `C[C@H]1C(=O)O[C@@H]2[C@H]1O[C@@]13O[C@]4(CC[C@@]5(C)C(=O)[C@@](C)(O)[C@]2(O)[C@@H]15)C[C@@]12OC(=O)C[C@@H]1OC(C)(C)[C@H]2C[C@@H](O)[C@@H]4C3=O`, the Activity in the data set on Hepatocyte [7] was 37.6%.

`COC(=O)[C@]1(C)[C@@H](O)C[C@H](O)[C@]23C[C@]24CC[C@]2(C)[C@@H]([C@H](C=O)C/C=C/C(C)(C)O)CC[C@@]2(C)[C@@H]4CC[C@@H]13`: the IC50 in the data set with Hepatocyte [8] came to 45.7 µM.

With `C=C(C)C(=O)CC[C@@H](C=O)[C@H]1CC[C@@]2(C)[C@@H]3CC[C@H]4[C@](C)(C(=O)OC)[C@@H](O)C[C@H](O)[C@@]45C[C@@]35CC[C@]12C`, the IC50 with Hepatocyte [8] came out at 89.3 µM.

Take `C=C(C)[C@H](O)CC[C@@H](C)[C@H]1CC[C@@]2(C)[C@@H]3CC[C@H]4[C@](C)(C(=O)O)[C@@H](O)C[C@H](O)[C@@]45C[C@@]35CC[C@]12C`: the IC50 in the data set on Hepatocyte [8] came to 34.3 µM.

On to `CC(C)=CCC[C@@H](C)[C@H]1CC[C@@]2(C)C3=C(CC[C@]12C)[C@@]1(C)CC[C@H](O)C(C)(C)[C@@H]1CC3` [LANOSTEROL], for which the Activity in [1] came out at 74.8%.

As for `C=C(C)[C@@H](O)CC[C@@H](CO)[C@H]1CC[C@@]2(C)[C@@H]3CC[C@H]4[C@](C)(C(=O)OC)[C@@H](O)C[C@H](O)[C@@]45C[C@@]35CC[C@]12C` [METHYL QUADRANGULARATE], the IC50 in the data set with Hepatocyte [8] worked out at 337 µM.

In the case of `CC1=C2C3=CC[C@@H]4[C@@]5(C)C[C@@H](O)[C@H](O)[C@@](C)(CO)[C@@H]5CC[C@@]4(C)[C@]3(C)CC[C@@]2(C(=O)O[C@@H]2O[C@H](CO)[C@@H](O)[C@H](O)[C@H]2O)CC[C@H]1C`, the IC50 with Hepatocyte [9] stood at 34.6 µM.

As to `CC(C)C(O)(CO)CC[C@@H](C)[C@H]1CC[C@@]2(C)[C@@H]3CC[C@H]4[C@H](C(=O)O)[C@@H](O)C[C@H](O)[C@@]45C[C@@]35CC[C@]12C` (stereo not given in full), in the data set on Hepatocyte [8], the IC50 was 67.6 µM.

Take `C[C@]1(C(=O)O)CC[C@]2(C)CC[C@]3(C)C(=CC(=O)[C@@H]4[C@@]5(C)CC[C@H](O[C@@H]6O[C@H](C(=O)O)[C@@H](O)[C@H](O)[C@H]6O[C@@H]6O[C@H](C(=O)O)[C@@H](O)[C@H](O)[C@H]6O)[C@](C)(CO)[C@@H]5CC[C@]43C)[C@@H]2C1`: the Activity in the data set with Hepatocyte [2] was 253.5 U/L; in the data set on Hepatocyte [4], 17.1 U/L. For the same molecule, in data set [3], the IC50 turned out to be 6.9 µM.

As to `CC1=CC[C@H]([C@@H](C)[C@H]2CC[C@@]3(C)CCC[C@H]4C(C)(C)O[C@@H]5CC(=O)O[C@@]54CC(=O)[C@H](O)C[C@]23C)OC1=O`, the Activity with Hepatocyte [7] was found to be 37.6%.

Consider `C[C@@H]1C(=O)O[C@H]2[C@@H]1O[C@]13O[C@@]4(CC[C@]5(C)C(=O)[C@](C)(O)[C@@]2(O)[C@H]15)C[C@]12OC(=O)C[C@H]1OC(C)(C)[C@@H]2C[C@@H]1O[C@@]14C3=O`, for which the Activity in the data set with Hepatocyte [7] is recorded as 37.6%.

Regarding `C[C@@H]1C(=O)O[C@H]2[C@@H]1O[C@]13O[C@@]4(CC[C@]5(C)C(=O)[C@@](C)(O)[C@H]2[C@H]15)C[C@]12OC(=O)C[C@H]1OC(C)(C)[C@@H]2C[C@@H]1O[C@@]14C3=O`, in the data set on Hepatocyte [7], the Activity came out at 37.6%.

As for `CC(C)=CC[C@@H](O)[C@@H](C)[C@H]1CC[C@@]2(C)C3=C(C(=O)C[C@]12C)[C@@]1(C)CC[C@H](O)C(C)(C)[C@@H]1CC3`, the Activity in [1] is given as 81.2%.

In the case of `C[C@]1(C(=O)O)CC[C@]2(C)CC[C@]3(C)C(=CC(=O)[C@@H]4[C@@]5(C)CC[C@H](O[C@@H]6O[C@H](C(=O)O)[C@@H](O)[C@H](O)[C@H]6O[C@@H]6O[C@H](C(=O)O)[C@@H](O)[C@H](O)[C@H]6O)[C@](C)(CO)[C@@H]5CC[C@]43C)[C@H]2C1`, the Activity with Hepatocyte [2] is listed as 253.5 U/L; in the data set on Hepatocyte [4] it was 17.1 U/L. Moreover, the IC50 in [3] is 3.6 µM.

For the molecule `CC(C)=C(C)[C@H]1C[C@@H]([C@H]2CC[C@@]3(C)C4=C(CC[C@]23C)[C@@]2(C)CC[C@H](O)C(C)(C)[C@@H]2CC4)C(=O)O1`, in data set [1], the Activity came to 71.9%.

On to `C[C@@H]1C(=O)[C@]2(C)CC[C@@]34C[C@@]56OC(=O)C[C@@H]5OC(C)(C)[C@H]6C[C@@H](O)[C@@H]3C(=O)[C@]3(O[C@@H]5[C@@H](OC(=O)[C@@H]5C)[C@H]1[C@@H]32)O4`, for which the Activity with Hepatocyte [7] came to 37.6%.

In turn, `C[C@@H]1CC[C@]2(C(=O)O)CC[C@]3(C)C(=CC[C@@H]4[C@@]5(C)C[C@@H](O)[C@H](O)C(C)(C)[C@@H]5CC[C@]43C)[C@@H]2[C@]1(C)O` [TOMENTIC ACID] yielded an IC50 in the data set on Hepatocyte [10] of 9.5 µM.

As for `C=C(C)[C@@H]1CC[C@]2(C(=O)O)CC[C@]3(C)[C@H](CC[C@@H]4[C@@]5(C)C[C@@H](O)[C@H](O)[C@](C)(CO)[C@@H]5[C@H](O)C[C@]43C)[C@@H]12`, the IC50 in the data set on Hepatocyte [7] (Mus musculus, Hepatocyte) stood at 51.2 µM.

Values taken from ChEMBL document CHEMBL5260832, “Hepatoprotective natural triterpenoids” (Eur J Med Chem, 2018).
